Legend:
[1] = system: MCF7; test: Cytotoxicity against human MCF7 cells assessed as reduction in cell viability incubated for 48 hrs by MTS assay; assay type: toxicity, cell-based; details: mcf7
[2] = system: Plasmodium falciparum; test: Resistance index, ratio of EC50 for multidrug-resistant Plasmodium falciparum Dd2 at ring stage infected in A+ erythrocytes to EC50 for drug-sensitive Plasmodium falciparum 3D7 at ring stage infected in A+ erythrocytes; assay type: organism-based; details: human
[3] = Selectivity index, ratio of EC50 for human MCF7 cells to EC50 for multidrug-resistant Plasmodium falciparum Dd2 at ring stage infected in A+ erythrocytes; assay type: toxicity, cell-based; details: read-out: Ratio EC50
[4] = system: HepG2; test: Cytotoxicity against human HepG2 cells assessed as reduction in cell viability incubated for 48 hrs by MTS assay; assay type: toxicity, cell-based; details: hepg2
[5] = system: Plasmodium falciparum; test: Antiplasmodial activity against multidrug-resistant Plasmodium falciparum Dd2 at ring stage infected in A+ erythrocytes assessed as parasite growth reduction incubated for 72 hrs by SYBR Green I dye based analysis; assay type: functional, organism-based; details: Dd2, Erythrocyte
[6] = system: Plasmodium falciparum; test: Antiplasmodial activity against drug-sensitive Plasmodium falciparum 3D7 at ring stage infected in A+ erythrocytes assessed as parasite growth reduction incubated for 72 hrs by SYBR Green I dye based analysis; assay type: functional, organism-based; details: 3D7, Erythrocyte
[7] = Selectivity index, ratio of EC50 for human HepG2 cells to EC50 for multidrug-resistant Plasmodium falciparum Dd2 at ring stage infected in A+ erythrocytes; assay type: toxicity, cell-based; details: read-out: Ratio EC50
[8] = system: Plasmodium falciparum; test: Antimalarial activity against Plasmodium falciparum harboring AcAS A597V mutation assessed as reduction in parasitemia incubated for 72 hrs by SYBR green I dye based analysis; assay type: functional, organism-based
[9] = system: Plasmodium falciparum; test: Antimalarial activity against Plasmodium falciparum harboring CARL I1139K mutation assessed as reduction in parasitemia incubated for 72 hrs by SYBR green I dye based analysis; assay type: functional, organism-based
[10] = system: Plasmodium falciparum; test: Antimalarial activity against Plasmodium falciparum harboring PI4K S1320L mutation assessed as reduction in parasitemia incubated for 72 hrs by SYBR green I dye based analysis; assay type: functional, organism-based
[11] = system: Plasmodium falciparum; test: microbe, parasite or virus in culture; details: Dd2, 72 h
Description: Antimalarial activity against wild-type Plasmodium falciparum Dd2 assessed as reduction in parasitemia incubated for 72 hrs by SYBR green I dye based analysis

[12] = Metabolic stability in mouse liver microsomes assessed as half life; assay type: ADME, Liver cells
[13] = Metabolic stability in mouse liver microsomes assessed as intrinsic clearance; assay type: ADME, Liver cells

In the case of CCN1CCN(Cc2ccc(NC(=O)c3cc(Cl)cc(Nc4cncc(-c5cccs5)c4)c3)cc2C(F)(F)F)CC1, the EC50 [1] is reported as 5530 nM, the “Ratio EC50” value [2] is reported as 1.2 and the selectivity ratio [3] is reported as 19. It also gave an EC50 [4] of 3620 nM, an EC50 [5] of 296 nM and an EC50 [6] of 253 nM. For the same compound, the selectivity ratio [7] was 12.

With CCN1CCN(Cc2ccc(NC(=O)c3cc(NC(=O)c4cncc(-c5cccs5)c4)ccc3F)cc2C(F)(F)F)CC1 the EC50 [1] was 10800 nM, the “Ratio EC50” value [2] was 2 and the selectivity ratio [3] was 11. The EC50 [4] was 6710 nM, the EC50 [5] was 981 nM and the EC50 [6] was 491 nM. For the same compound, the selectivity ratio [7] was 6.8.

Compound C[C@@H]1CC[C@H]2[C@@H](C)C(=O)O[C@@H]3O[C@@]4(C)CC[C@@H]1[C@]32OO4 [ARTEMISININ] has an EC50 [8] of 5.1 nM, an EC50 [9] of 4 nM and an EC50 [10] of 5.2 nM. For the same compound, the EC50 [11] was 2.9 nM.

In the case of CCN1CCN(Cc2ccc(NC(=O)c3ccnc(NC(=O)c4cncc(-c5cccs5)c4)c3)cc2C(F)(F)F)CC1, the EC50 [1] is reported as 4610 nM, the “Ratio EC50” value [2] is reported as 1.6 and the selectivity ratio [3] is reported as 8. The EC50 [4] was 3030 nM, the EC50 [5] was 579 nM and the EC50 [6] was 356 nM. The selectivity ratio [7] was 5.2.

With CCN1CCN(Cc2ccc(NC(=O)c3cncc(NC(=O)c4cncc(-c5cccs5)c4)c3)cc2C(F)(F)F)CC1 the EC50 [1] was 4710 nM, the “Ratio EC50” value [2] was 1.1 and the selectivity ratio [3] was 62. For the same compound, the t1/2 [12] was 19.1 min, the EC50 [4] was 2550 nM and the EC50 [5] was 76 nM. For the same compound, the intrinsic clearance [13] was 36 µL/min/mg, the EC50 [6] was 70 nM and the selectivity ratio [7] was 34.

In the case of CCN1CCN(Cc2ccc(NC(=O)c3cc(F)cc(NC(=O)c4cncc(-c5cccs5)c4)c3)cc2C(F)(F)F)CC1, the EC50 [1] is reported as 10200 nM, the “Ratio EC50” value [2] is reported as 1.2 and the selectivity ratio [3] is reported as 76. The t1/2 [12] was 32.4 min, the EC50 [4] was 6690 nM and the EC50 [5] was 135 nM. For the same compound, the intrinsic clearance [13] was 21 µL/min/mg, the EC50 [6] was 113 nM and the selectivity ratio [7] was 50.

For CCN1CCN(Cc2ccc(NC(=O)c3cc(Cl)cc(NC(=O)c4cncc(-c5cncs5)c4)c3)cc2C(F)(F)F)CC1, the EC50 [1] was 8140 nM, the “Ratio EC50” value [2] was 0.8 and the selectivity ratio [3] was 145. The t1/2 [12] was 52.1 min, the EC50 [4] was 6080 nM and the EC50 [5] was 56 nM. The intrinsic clearance [13] was 13 µL/min/mg, the EC50 [6] was 74 nM and the selectivity ratio [7] was 109.

In the case of CCN1CCN(Cc2ccc(NC(=O)c3cc(Cl)cc(NC(=O)c4cnc(N)nc4)c3)cc2C(F)(F)F)CC1, the EC50 [1] is reported as 13700 nM, the “Ratio EC50” value [2] is reported as 1.9 and the selectivity ratio [3] is reported as 19. For the same compound, the EC50 [4] was 19200 nM, the EC50 [5] was 709 nM and the EC50 [6] was 378 nM. For the same compound, the selectivity ratio [7] was 27.

In the case of CCN1CCN(Cc2ccc(NC(=O)c3cc(Br)cc(NC(=O)c4cncc(-c5cccs5)c4)c3)cc2C(F)(F)F)CC1, the EC50 [1] is reported as 6590 nM, the “Ratio EC50” value [2] is reported as 1.6 and the selectivity ratio [3] is reported as 108. For the same compound, the t1/2 [12] was 40.7 min, the EC50 [4] was 4380 nM and the EC50 [5] was 61 nM. For the same compound, the intrinsic clearance [13] was 17 µL/min/mg, the EC50 [6] was 39 nM and the selectivity ratio [7] was 72.

For CCN1CCN(Cc2ccc(C(=O)Nc3cc(Cl)cc(NC(=O)c4cncc(-c5cccs5)c4)c3)cc2C(F)(F)F)CC1, the EC50 [1] was 7030 nM, the “Ratio EC50” value [2] was 1.4 and the selectivity ratio [3] was 68. The EC50 [4] was 9160 nM, the EC50 [5] was 104 nM and the EC50 [6] was 73 nM. It also gave a selectivity ratio [7] of 88.

For CCN1CCN(Cc2ccc(NC(=O)c3cc(Cl)cc(NC(=O)c4cncc(-c5cccs5)c4)c3)cc2)CC1, the EC50 [1] was 10300 nM, the “Ratio EC50” value [2] was 1.1 and the selectivity ratio [3] was 127. For the same compound, the t1/2 [12] was 65.3 min, the EC50 [4] was 8770 nM and the EC50 [5] was 81 nM. For the same compound, the intrinsic clearance [13] was 11 µL/min/mg, the EC50 [6] was 76 nM and the selectivity ratio [7] was 108.

With CCN1CCN(Cc2ccc(NC(=O)c3cc(Cl)cc(NC(=O)c4cncnc4)c3)cc2C(F)(F)F)CC1 the EC50 [1] was 15300 nM, the “Ratio EC50” value [2] was 1.3 and the selectivity ratio [3] was 29. It also gave an EC50 [4] of 17300 nM, an EC50 [5] of 520 nM and an EC50 [6] of 395 nM. It also gave a selectivity ratio [7] of 33.

For CCN1CCN(Cc2ccc(NC(=O)c3cc(Cl)cc(NC(=O)c4cncc(-c5ccccc5)c4)c3)cc2C(F)(F)F)CC1, the EC50 [1] was 4350 nM, the “Ratio EC50” value [2] was 1.2 and the selectivity ratio [3] was 87. The t1/2 [12] was 50.2 min, the EC50 [4] was 3290 nM and the EC50 [5] was 50 nM. It also gave an intrinsic clearance [13] of 14 µL/min/mg, an EC50 [6] of 41 nM and a selectivity ratio [7] of 66.

For CCN1CCN(Cc2ccc(NC(=O)c3cc(Cl)cc(NCc4cncc(-c5cccs5)c4)c3)cc2C(F)(F)F)CC1, the EC50 [1] was 8330 nM, the “Ratio EC50” value [2] was 1.1 and the selectivity ratio [3] was 24. The EC50 [4] was 5590 nM, the EC50 [5] was 344 nM and the EC50 [6] was 310 nM. It also gave a selectivity ratio [7] of 16.

— ChEMBL document CHEMBL5537177, “Discovery of Potent Antimalarial Type II Kinase Inhibitors with Selectivity over Human Kinases” (J Med Chem, 2024)
